From patent US8779144B2, “Bicycloheteroaryl compounds as P2X7 modulators and uses thereof” (Evotec (US) Inc., priority 2006, dated 2014)

Tests used:
[1] = Half-life in human liver microsomes (HLM); format: in vitro ADME; settings: 1 μM compound, 0.78 mg/mL HLM, NADPH, pH 7.4, 37° C.
Method: Test compounds (1 μM) are incubated with 3.3 mM MgCl2 and 0.78 mg/mL HLM (HL101) in 100 mM potassium phosphate buffer (pH 7.4) at 37° C. on the 96-deep well plate. The reaction mixture is split into two groups, a non-P450 and a P450 group. NADPH is only added to the reaction mixture of the P450 group. An aliquot of samples of P450 group is collected at 0, 10, 30, and 60 min time point, where 0 min time point indicated the time when NADPH is added into the reaction mixture of P450 group. An aliquot of samples of non-P450 group is collected at −10 and 65 min time point. Collected aliquots are extracted with acetonitrile solution containing an internal standard. The precipitated protein is spun down in centrifuge (2000 rpm, 15 min). The compound concentration in supernatant is measured by LC/MS/MS system.
The half-life value is obtained by plotting the natural logarithm of the peak area ratio of compounds/internal standard versus time. The slope of the line of best fit through the points yields the rate of metabolism (k). This is converted to a half-life value using following equations: Half-life=ln 2/k

[2] = tested on: IL-1β release from THP-1 cells; assay: IL-1β release assay in differentiated THP-1 cells stimulated with BzATP (ELISA); format: cell-based; settings: Homo sapiens; for inhibition at 0.3 µM: 0.3 uM compound, BzATP 250 uM, read-out: IL-1β % Inhib. @ 0.3 uM.; for IC50: released IL-1β as in Example 9, four parameter logistic fit, read-out: IL-Iβ IC50
Method: THP-1 cells (ATCC Cat #285-IF-100) are plated in 96 well plates at a concentration of 200,000 cells per well and allowed to differentiate in RPMI-1640 media (ATCC Cat #30-2001) containing 10% FBS, 100 IU/mL penicillin, 100 ug/mL streptomycin, 100 ng/mL LPS and 100 ng/mL IFN-γ for 16 hours. Following differentiation, the cells are treated for an additional 2 hours in RPMI-1640 media containing 100 IU/mL penicillin, 100 ug/mL streptomycin and fresh LPS at 100 ng/mL. The cells are then pretreated for 30 minutes with the compound of interest at the appropriate concentration in RPMI media containing 100 IU/mL penicillin, 100 ug/mL streptomycin. Following the pretreatment 2′,3′-O-(4-benzoylbenzoyl)-adenosine 5′-triphosphate (Sigma Aldrich Cat # B6396) is added to a final concentration of 250 uM and the cells are incubated for an additional 45 minutes. 30 uL of cell supernatant is then collected and IL-113 levels determined via ELISA (R&D systems Cat. # HSLB50) according to manufacturer's recommendations using the Tecan Safire plate reader. Background adjusted IL-1β levels of drug treated and non-treated cells are used to calculate the percent inhibition. […]
The compounds set forth in Table 1 were tested for activity in a cellular model as described herein. Specifically, cells were pretreated with differing amounts of the compound under test and released IL-1β determined as in Example 9, above. Measurements were made and IC50 values, presented in Table 2, below, were determined by fitting the data to a four parameter logistic equation using GraphPad Prism software (GraphPad Software, Inc). The equation may be expressed by the following formula: Y=Bottom+(Top−Bottom)/(1+10^((LogEC50−X)*HillSlope)) Where X is the logarithm of concentration, Y is the response and Y starts at Bottom and goes to Top with a sigmoid shape.

For O=C(NCC12CC3CC(CC(C3)C1)C2)c1cccc2c(=O)[nH]ccc12 [Compound 2028, 1-Oxo-1,2-dihydro-isoquinoline-5-carboxylic acid (adamantan-1-ylmethyl)-amide], which half-life at 1 μM [1] is on record?
The half-life at 1 μM was 18.6 min.

And the inhibition at 0.3 µM [2]?
Its inhibition at 0.3 µM is > 76%.

What about the IC50 [2] of the same compound?
Its IC50 is 0.73 nM.

Which half-life at 1 μM [1] does the source give for O=C(NCC1CCCCCC1)c1cccc2c(=O)n(CCO)ccc12 [Compound 2041, 2-(2-Hydroxy-ethyl)-1-oxo-1,2-dihydro-isoquinoline-5-carboxylic acid cycloheptylmethyl-amide] here?
Its half-life at 1 μM is 18 min.

And the inhibition at 0.3 µM [2]?
The inhibition at 0.3 µM was > 76%.

What about the IC50 [2] of the same compound?
The IC50 was 54 nM.

For CC(C)C(CO)n1ccc2c(C(=O)NCC3(O)CCCCCC3)cccc2c1=O (stereo not drawn) [Compound 2035, 2-(1-Hydroxymethyl-2-methyl-propyl)-1-oxo-1,2-dihydro-isoquinoline-5-carboxylic acid (1-hydroxy-cycloheptylmethyl)-amide], which half-life at 1 μM [1] is on record?
Its half-life at 1 μM is 38.4 min.

And the inhibition at 0.3 µM [2]?
The inhibition at 0.3 µM was > 76%.

What about the IC50 [2] of the same compound?
The IC50 was 5.66 nM.

What does the source list for C[C@@H](C(N)=O)n1ccc2c(C(=O)NCC3CCCCCC3)cccc2c1=O [Compound 2063]?
half-life at 1 μM [1]: 66 min; inhibition at 0.3 µM [2]: > 76%; IC50 [2]: 17.3 nM

Which half-life at 1 μM [1] does the source give for O=C(NCC1(O)CCCCCC1)c1cccc2c(=O)n(CC3CCOCC3)ccc12 [Compound 2034] here?
Its half-life at 1 μM is 15.6 min.

And the inhibition at 0.3 µM [2]?
Its inhibition at 0.3 µM is 51 to 75%.

And the IC50 [2]?
The IC50 was 133 nM.

With CC1(C)CCCC(O)(CNC(=O)c2cccc3c(=O)n(C(CO)CO)ccc23)C1 (stereo not drawn) [Compound 2043] as the compound, how does the half-life at 1 μM [1] read?
The half-life at 1 μM was 38.4 min.

And the inhibition at 0.3 µM [2]?
The inhibition at 0.3 µM was > 76%.

And the IC50 [2]?
The IC50 was 23 nM.

Which half-life at 1 μM [1] does the source give for O=C(NCC1(O)CCCCCC1)c1cccc2c(=O)n(CCO)ccc12 [Compound 2048, 2-(2-Hydroxy-ethyl)-1-oxo-1,2-dihydro-isoquinoline-5-carboxylic acid (1-hydroxy-cycloheptylmethyl)-amide] here?
Its half-life at 1 μM is 42.6 min.

What about the inhibition at 0.3 µM [2] of the same compound?
Its inhibition at 0.3 µM is 26 to 50%.

And the IC50 [2]?
Its IC50 is 326 nM.

With Cn1ccc2c(C(=O)NCC3(O)CCCCCC3)cccc2c1=O [Compound 2032] as the compound, how does the half-life at 1 μM [1] read?
The half-life at 1 μM was 22.8 min.

And the inhibition at 0.3 µM [2]?
Its inhibition at 0.3 µM is > 76%.

What about the IC50 [2] of the same compound?
The IC50 was 48.6 nM.

Which half-life at 1 μM [1] does the source give for O=C(NCC1CCCCCC1)c1cccc2c(=O)n(C(CO)CO)ccc12 [Compound 2040] here?
The half-life at 1 μM was 51 min.

What about the inhibition at 0.3 µM [2] of the same compound?
Its inhibition at 0.3 µM is > 76%.

What about the IC50 [2] of the same compound?
Its IC50 is 39.2 nM.

Which half-life at 1 μM [1] does the source give for C[C@H](C(N)=O)n1ccc2c(C(=O)NCC34CC5CC(CC(C5)C3)C4)cccc2c1=O [Compound 2064, 2-((R)-1-Carbamoyl-ethyl)-1-oxo-1,2-dihydro-isoquinoline-5-carboxylic acid (adamantan-1-ylmethyl)-amide] here?
Its half-life at 1 μM is 19.2 min.

And the inhibition at 0.3 µM [2]?
Its inhibition at 0.3 µM is > 76%.

And the IC50 [2]?
Its IC50 is 0.15 nM.

What does the source list for O=C(NCC1(O)CCCCCC1)c1cccc2c(=O)n(Cc3ccc4c(c3)OCCO4)ccc12 [Compound 2033, 2-(2,3-Dihydro-benzo[1,4]dioxin-6-ylmethyl)-1-oxo-1,2-dihydro-isoquinoline-5-carboxylic acid (1-hydroxy-cycloheptylmethyl)-amide]?
half-life at 1 μM [1]: 13.8 min; inhibition at 0.3 µM [2]: > 76%; IC50 [2]: 1.37 nM

For O=C(NCC1(O)CCCCCC1)c1cccc2c(=O)[nH]ccc12 [Compound 2030], which half-life at 1 μM [1] is on record?
The half-life at 1 μM was 23.4 min.

And the inhibition at 0.3 µM [2]?
Its inhibition at 0.3 µM is 51 to 75%.

And the IC50 [2]?
The IC50 was 79 nM.

Which results are given for O=C(NCC1(O)CCCCCC1)c1cccc2c(=O)n(C(CO)CO)ccc12 [Compound 2047]?
half-life at 1 μM [1]: 31.8 min; inhibition at 0.3 µM [2]: 26 to 50%; IC50 [2]: 573 nM

Which half-life at 1 μM [1] does the source give for C[C@H](C(N)=O)n1ccc2c(C(=O)NCC3CCCCCC3)cccc2c1=O [Compound 2062] here?
Its half-life at 1 μM is 36 min.

And the inhibition at 0.3 µM [2]?
Its inhibition at 0.3 µM is > 76%.

And the IC50 [2]?
The IC50 was 7.46 nM.

For O=C(NCC1CCCCCC1)c1cccc2c(=O)n(CC(O)CO)ccc12 (stereo not drawn) [Compound 2039, 2-(2,3-Dihydroxy-propyl)-1-oxo-1,2-dihydro-isoquinoline-5-carboxylic acid cycloheptylmethyl-amide], which inhibition at 0.3 µM [2] is on record?
Its inhibition at 0.3 µM is 51 to 75%.

And the IC50 [2]?
Its IC50 is 257 nM.

Which inhibition at 0.3 µM [2] does the source give for CC1(C)CCCC(O)(CNC(=O)c2cccc3c(=O)n(CC(O)CO)ccc23)C1 (stereo not drawn) [Compound 2042] here?
Its inhibition at 0.3 µM is 51 to 75%.

What about the IC50 [2] of the same compound?
Its IC50 is 145 nM.

With C[C@@H](C(N)=O)n1ccc2c(C(=O)NCc3ccc(Cl)c(Cl)c3)cccc2c1=O [Compound 2061] as the compound, how does the inhibition at 0.3 µM [2] read?
Its inhibition at 0.3 µM is 51 to 75%.

What about the IC50 [2] of the same compound?
Its IC50 is 214 nM.

Which inhibition at 0.3 µM [2] does the source give for O=C(NCC1CCCCC1)c1ncnc2c1CCNC2 [Compound 2002, 5,6,7,8-Tetrahydro-pyrido[3,4-d]pyrimidine-4-carboxylic acid cyclohexylmethyl-amide] here?
The inhibition at 0.3 µM was 0 to 25%.

With O=C(NCC1(O)CCCCCC1)c1ncnc2c1CCN(Cc1ccccc1)C2 [Compound 2016] as the compound, how does the inhibition at 0.3 µM [2] read?
Its inhibition at 0.3 µM is 0 to 25%.

For O=C(NCC1CCCCC1)c1ncnc2c1CCN(Cc1ccccc1Cl)C2 [Compound 2008], which inhibition at 0.3 µM [2] is on record?
The inhibition at 0.3 µM was 0 to 25%.
